Data taken from US20260083851A1 (AVILAR THERAPEUTICS, INC., priority 2022, published 2026).

Target: T1, ASGP receptor (biotinylated ASGPR) (Homo sapiens, UniProt P07306)
T1 construct: biotin (biotinylated)
T1 sequence (P07306 1-291): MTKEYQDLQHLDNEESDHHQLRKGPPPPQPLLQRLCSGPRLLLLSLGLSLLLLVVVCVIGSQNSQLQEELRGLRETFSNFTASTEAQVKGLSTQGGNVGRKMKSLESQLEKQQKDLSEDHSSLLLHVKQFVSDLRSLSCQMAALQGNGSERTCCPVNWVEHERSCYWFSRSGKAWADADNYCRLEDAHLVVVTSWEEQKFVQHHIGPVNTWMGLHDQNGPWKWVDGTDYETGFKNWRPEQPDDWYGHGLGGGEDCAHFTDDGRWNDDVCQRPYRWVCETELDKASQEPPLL
Type: binding
Conditions: SPR, Biacore 8K, 25° C.; Table 1A; read-out: ASGPR KD

| Structure (SMILES) | Kd [µM] |
| --- | --- |
| O[C@@H]1[C@H](O)[C@@H](Nc2cncc(C(F)(F)F)n2)CO[C@@H]1CN1CCCCCCC1 [A73, (2R,3R,4R,5S)-2-(azocan-1-ylmethyl)-5-((6-(trifluoromethyl)pyrazin-2-yl)amino)tetrahydro-2H-pyran-3,4-diol] | < 10 |
| O[C@@H]1[C@H](O)[C@@H](Nc2cncc(C(F)(F)F)n2)CO[C@@H]1CNc1ncncn1 [A85, (2R,3R,4R,5S)-2-(((1,3,5-triazin-2-yl)amino)methyl)-5-((6-(trifluoromethyl)pyrazin-2-yl)amino)tetrahydro-2H-pyran-3,4-diol] | < 10 |
| [N-]=[N+]=NCCCCCC(=O)NC(COCCC(=O)NCCOCCOCCOCCOC[C@H]1OC[C@H](Nc2cncc(C(F)(F)F)n2)[C@@H](O)[C@H]1O)(COCCC(=O)NCCOCCOCCOCCOC[C@H]1OC[C@H](Nc2cncc(C(F)(F)F)n2)[C@@H](O)[C@H]1O)COCCC(=O)NCCOCCOCCOCCOC[C@H]1OC[C@H](Nc2cncc(C(F)(F)F)n2)[C@@H](O)[C@H]1O [A87, 3,3′-((2-(6-azidohexanamido)-2-(1-((2R,3R,4R,5S)-3,4-dihydroxy-5-((6-(trifluoromethyl)pyrazin-2-yl)amino)tetrahydro-2H-pyran-2-yl)-15-oxo-2,5,8,11,18-pentaoxa-14-azanonadecan-19-yl)propane-1,3-diyl)bis(oxy))bis(N-(1-((2R,3R,4R,5S)-3,4-dihydroxy-5-((6-(trifluoromethyl)pyrazin-2-yl)amino)tetrahydro-2H-pyran-2-yl)-2,5,8,11-tetraoxatridecan-13-yl)propanamide)] | < 10 |
| O[C@@H]1[C@H](O)[C@@H](Nc2cncc(C(F)(F)F)n2)CO[C@@H]1CN1CCNCC1 [A91, (2R,3R,4R,5S)-2-(piperazin-1-ylmethyl)-5-((6-(trifluoromethyl)pyrazin-2-yl)amino)tetrahydro-2H-pyran-3,4-diol] | < 10 |
| NC1CC2(C1)CC(NC(=O)C[C@H]1OC[C@H](Nc3cncc(C(F)(F)F)n3)[C@@H](O)[C@H]1O)C2 (stereo partly drawn) [A92, N-(6-aminospiro[3.3]heptan-2-yl)-2-((2R,3R,4R,5S)-3,4-dihydroxy-5-((6-(trifluoromethyl)pyrazin-2-yl)amino)tetrahydro-2H-pyran-2-yl)acetamide] | < 10 |
| O=C(O)CCC(=O)NC1CC2(C1)CC(NC(=O)C[C@H]1OC[C@H](Nc3cncc(C(F)(F)F)n3)[C@@H](O)[C@H]1O)C2 (stereo partly drawn) [A93] | < 10 |
| OC[C@H]1O[C@@H](c2ccccc2)[C@H](Nc2nccc(C(F)(F)F)n2)[C@@H](O)[C@H]1O [A94, (2R,3R,4R,5R,6S)-2-(hydroxymethyl)-6-phenyl-5-((4-(trifluoromethyl)pyrimidin-2-yl)amino)tetrahydro-2H-pyran-3,4-diol] | < 10 |
| CC(=O)N[C@@H]1[C@@H](O)[C@@H](O)[C@@H](CO)O[C@@H]1c1ccccc1 [A95, N-((2R,3R,4R,5R,6R)-4,5-dihydroxy-6-(hydroxymethyl)-2-phenyltetrahydro-2H-pyran-3-yl)acetamide] | < 10 |
| OC[C@H]1O[C@H](c2ccccc2)[C@H](Nc2nccc(C(F)(F)F)n2)[C@@H](O)[C@H]1O [A96, (2R,3R,4R,5R,6R)-2-(hydroxymethyl)-6-phenyl-5-((4-(trifluoromethyl)pyrimidin-2-yl)amino)tetrahydro-2H-pyran-3,4-diol] | < 10 |
| O=C(O)c1ccc(N2CCC(CN3CCN(C[C@H]4OC[C@H](Nc5ccnc(C(F)(F)F)n5)[C@@H](O)[C@H]4O)CC3)CC2)cc1 [A97, 4-(4-((4-(((2R,3R,4R,5S)-3,4-dihydroxy-5-((2-(trifluoromethyl)pyrimidin-4-yl)amino)tetrahydro-2H-pyran-2-yl)methyl)piperazin-1-yl)methyl)piperidin-1-yl)benzoic acid] | < 10 |
| NC[C@H]1OC[C@H](Nc2cccc(C(F)(F)F)n2)[C@@H](O)[C@H]1O [A98, (2R,3R,4R,5S)-2-(aminomethyl)-5-((6-(trifluoromethyl)pyridin-2-yl)amino) tetrahydro-2H-pyran-3,4-diol] | < 10 |
| NC[C@H]1OC[C@H](Nc2nc(C(F)(F)F)ccc2F)[C@@H](O)[C@H]1O [A99, (2R,3R,4R,5S)-2-(aminomethyl)-5-((3-fluoro-6-(trifluoromethyl)pyridin-2-yl)amino)tetrahydro-2H-pyran-3,4-diol] | < 10 |

Next, values leading:

| Kd [µM] | Structure (SMILES) |
| --- | --- |
| < 10 | COC(=O)c1cnc(C(=O)NC[C@H]2OC[C@H](Nc3cncc(C(F)(F)F)n3)[C@@H](O)[C@H]2O)nc1 [A72, methyl 2-((((2R,3R,4R,5S)-3,4-dihydroxy-5-((6-(trifluoromethyl)pyrazin-2-yl)amino)tetrahydro-2H-pyran-2-yl)methyl)carbamoyl)pyrimidine-5-carboxylate] |
| < 10 | O=C(NC[C@H]1OC[C@H](Nc2cncc(C(F)(F)F)n2)[C@@H](O)[C@H]1O)c1ccccn1 [A74, N-(((2R,3R,4R,5S)-3,4-dihydroxy-5-((6-(trifluoromethyl)pyrazin-2-yl)amino)tetrahydro-2H-pyran-2-yl)methyl)picolinamide] |
| < 10 | O=C(NC[C@H]1OC[C@H](Nc2cncc(C(F)(F)F)n2)[C@@H](O)[C@H]1O)c1ncc(-c2ccccc2)cn1 [A75, N-(((2R,3R,4R,5S)-3,4-dihydroxy-5-((6-(trifluoromethyl)pyrazin-2-yl)amino)tetrahydro-2H-pyran-2-yl)methyl)-5-phenylpyrimidine-2-carboxamide] |
| < 10 | O=C(NC[C@H]1OC[C@H](Nc2cncc(C(F)(F)F)n2)[C@@H](O)[C@H]1O)c1cnc2c(c1)CCNC2 [A76, N-(((2R,3R,4R,5S)-3,4-dihydroxy-5-((6-(trifluoromethyl)pyrazin-2-yl)amino)tetrahydro-2H-pyran-2-yl)methyl)-5,6,7,8-tetrahydro-1,7-naphthyridine-3-carboxamide] |
| < 10 | O=C(NC[C@H]1OC[C@H](Nc2cncc(C(F)(F)F)n2)[C@@H](O)[C@H]1O)c1ccc2c(n1)CCNC2 [A77, N-(((2R,3R,4R,5S)-3,4-dihydroxy-5-((6-(trifluoromethyl)pyrazin-2-yl)amino)tetrahydro-2H-pyran-2-yl)methyl)-5,6,7,8-tetrahydro-1,6-naphthyridine-2-carboxamide] |
| < 10 | O=C(NC[C@H]1OC[C@H](Nc2cncc(C(F)(F)F)n2)[C@@H](O)[C@H]1O)c1ncc2cc[nH]c2n1 [A78, N-(((2R,3R,4R,5S)-3,4-dihydroxy-5-((6-(trifluoromethyl)pyrazin-2-yl)amino)tetrahydro-2H-pyran-2-yl)methyl)-7H-pyrrolo[2,3-d]pyrimidine-2-carboxamide] |
| < 10 | O=C(NC[C@H]1OC[C@H](Nc2cncc(C(F)(F)F)n2)[C@@H](O)[C@H]1O)c1cnc2[nH]cnc2c1 [A79, N-(((2R,3R,4R,5S)-3,4-dihydroxy-5-((6-(trifluoromethyl)pyrazin-2-yl)amino)tetrahydro-2H-pyran-2-yl)methyl)-3H-imidazo[4,5-b]pyridine-6-carboxamide] |
| < 10 | O=C(NC[C@H]1OC[C@H](Nc2cncc(C(F)(F)F)n2)[C@@H](O)[C@H]1O)c1ccncc1 [A80, N-(((2R,3R,4R,5S)-3,4-dihydroxy-5-((6-(trifluoromethyl)pyrazin-2-yl)amino)tetrahydro-2H-pyran-2-yl)methyl)isonicotinamide] |
| < 10 | O=C(NC[C@H]1OC[C@H](Nc2cncc(C(F)(F)F)n2)[C@@H](O)[C@H]1O)c1ncc2ccccc2n1 [A81, N-(((2R,3R,4R,5S)-3,4-dihydroxy-5-((6-(trifluoromethyl)pyrazin-2-yl)amino)tetrahydro-2H-pyran-2-yl)methyl)quinazoline-2-carboxamide] |
| < 10 | O=C(NC[C@H]1OC[C@H](Nc2cncc(C(F)(F)F)n2)[C@@H](O)[C@H]1O)c1cnc2cc[nH]c2n1 [A82, N-(((2R,3R,4R,5S)-3,4-dihydroxy-5-((6-(trifluoromethyl)pyrazin-2-yl)amino)tetrahydro-2H-pyran-2-yl)methyl)-5H-pyrrolo[2,3-b]pyrazine-3-carboxamide] |
| < 10 | O=C(NC[C@H]1OC[C@H](Nc2cncc(C(F)(F)F)n2)[C@@H](O)[C@H]1O)c1cnc(-c2ccccc2)cn1 [A83, N-(((2R,3R,4R,5 S)-3,4-dihydroxy-5-((6-(trifluoromethyl)pyrazin-2-yl)amino)tetrahydro-2H-pyran-2-yl)methyl)-5-phenylpyrazine-2-carboxamide] |
| < 10 | O=C(O)c1cnc(C(=O)NC[C@H]2OC[C@H](Nc3cncc(C(F)(F)F)n3)[C@@H](O)[C@H]2O)nc1 [A84, 2-((((2R,3R,4R,5S)-3,4-dihydroxy-5-((6-(trifluoromethyl)pyrazin-2-yl)amino)tetrahydro-2H-pyran-2-yl)methyl)carbamoyl)pyrimidine-5-carboxylic acid] |
| < 10 | O=C(NC[C@H]1OC[C@H](Nc2cncc(C(F)(F)F)n2)[C@@H](O)[C@H]1O)c1ncc2c(n1)CCNC2 [A86, N-(((2R,3R,4R,5S)-3,4-dihydroxy-5-((6-(trifluoromethyl)pyrazin-2-yl)amino)tetrahydro-2H-pyran-2-yl)methyl)-5,6,7,8-tetrahydropyrido[4,3-d]pyrimidine-2-carboxamide] |
| < 10 | O=C(NC[C@H]1OC[C@H](Nc2cncc(C(F)(F)F)n2)[C@@H](O)[C@H]1O)c1ccc2c(n1)CCCN2 [A88, N-(((2R,3R,4R,5S)-3,4-dihydroxy-5-((6-(trifluoromethyl)pyrazin-2-yl)amino)tetrahydro-2H-pyran-2-yl)methyl)-5,6,7,8-tetrahydro-1,5-naphthyridine-2-carboxamide] |
| < 10 | O=C(NC[C@H]1OC[C@H](Nc2cncc(C(F)(F)F)n2)[C@@H](O)[C@H]1O)c1cnc(-c2ccccc2)nc1 [A89] |
